Assay results: a melting point compilation (Tetko et al.; mined from patent text by program, amines drawn as free bases though some values may be those of a salt)

Compound	melting point [°C]
CCOC(=O)C(Cc1ccc(OCCn2c(=O)sc3cc(C(=NO)C4CC4)ccc32)cc1)OCC(F)(F)F (stereo not given)	105 to 107
COc1nc2cccc(C(=O)O)c2n1Cc1ccc(-c2ccccc2-c2nnn[nH]2)cc1	208 to 209
Cc1cccc(C)c1OCC(C)NCC(O)c1cc(C(N)=O)cs1 (stereo not given)	125 to 137
Cc1cc2c(cc1OCCn1ccnc1)CC/C(=C\c1cccs1)C2=O	150 to 151
O=[N+]([O-])c1ccc(F)c(-c2ccccn2)c1F	84 to 86
CN(C)C=Nc1c(Cl)cc(N=Cc2cc(Cl)cc(Cl)c2)cc1Cl	194 to 195
CCCCC(CC)COC(=O)CSc1cc2c(cc1SCC(=O)OCC(CC)CCCC)C(=O)c1cc3ccccc3cc1C2=O (stereo not given)	75 to 80
Cc1c(C(=O)N[C@H](C)[C@](O)(Cn2cncn2)c2ccc(F)cc2F)cnn1-c1cccc(C(F)(F)F)c1	146 to 147
CC(=O)Nc1ccnn(C)c1=O	152 to 153
CCCn1nc2c(N)nc3ccccc3c2c1CCNC(=O)Nc1ccc(F)cc1	201 to 202
CCC(=O)C(Cc1ccc(O)cc1)C(=O)CC	44 to 54
NC(=O)CCN1CCC(c2noc3cc(F)ccc23)CC1	144 to 147
CCCCOc1c(CN2C(=O)c3ccccc3C2=O)n(CC(C)(C)C)c(=O)c2cc(F)ccc12	155 to 156
CC12CCC3C(CCC4CC(F)CCC43C)C1CCC2=O (stereo not given)	126 to 127
CC(C)(C)OC(=O)CC(Cc1ccccc1)NC(=O)C1Cc2ccccc2N1S(=O)(=O)c1ccc(-c2ccc(F)cc2)cc1 (stereo not given)	67 to 73
N[C@@H]1CN(c2c(F)cc3c(=O)c(C(=O)O)cn(C4CC4)c3c2F)C[C@@H]1n1ccnn1 (relative stereo)	245 to 247
O=C(O)c1cnn(-c2ccc(F)cc2)c1	244 to 247
O=C(O)CN1C(=O)C(=Cc2ccc(OCc3ccccc3)c(OCc3ccccn3)c2)SC1=S	204 to 207
O=C(Nc1cc(F)c(-c2ccncc2)c(F)c1)OCc1ccccc1	185 to 186
CC(C)C(=NO)c1ccc(Br)cc1	126 to 136
O=C(C=Cc1ccc(C(=O)O)cn1)NCCCCN1CCN(C(c2ccccc2)c2ccccc2)CC1	214 to 216
O=C1Nc2ccncc2N2CCNCC12 (stereo not given)	303 to 306
CC(=O)CSc1ccc(Cl)cc1C(=O)O	139 to 140
O=C(O)CC1(CCCCCCCCCCCC2(C(=O)O)CC2)CC1	75.3 to 78.9

Compound	melting point [°C]
CCCCOc1cccc(C(=O)C=Cc2ccc(OC)cc2OC)c1	80.4 to 81.3
COc1ccc(-c2nnn(-c3ccc(F)cc3Cl)c2N)cc1	136 to 141
COc1ccc(C2CC(=O)N(C(=S)NCc3ccc(F)cc3)N2C)cc1OC1CCCC1 (stereo not given)	48 to 51
Cc1cn(C(C)(C)C(=O)N(C)C)nc1-c1ccc(Cl)cc1Cl	110 to 111
O=C(Nc1c[nH]nc1C(=O)NCC(F)(F)F)c1ccccc1	203 to 206
CC(=O)O[C@H]1C=C(Br)[C@H](O)[C@@H](Br)[C@@H]1O	150 to 152
COc1cc(Nc2c(C#N)cnc3cc4cc(OCCCN5CCOCC5)c(OC)cc4cc23)c(Cl)cc1Cl	205 to 208
CCn1nc(-c2ncc(N)nc2-c2ccccc2)ccc1=O	227 to 229
Nc1c2ccccc2nc2c(=O)[nH][nH]c(=O)c12	167 to 168
Cc1ccccc1-c1nn(C(C)(C)C(=O)N(C)C)cc1Cl	134 to 136
O=C1NCc2cnc(Nc3ccc(N4CCCCC4CO)cc3)nc2N1C1CCCC1 (stereo not given)	220 to 221
Fc1cc(F)c(-c2c(F)nc3nncnc3c2F)c(F)c1	160 to 161
CCOC(=O)Cc1nnc(-c2ccc(OC)cc2)n1-c1ccccc1	130 to 131
Cc1cc2c(cc1C(C)SCC(=O)O)OCO2 (stereo not given)	93.5 to 94.5
Brc1cnc(N2CCCC2)c(OCC2CCCC2)n1	54 to 55
CC(C)(C)OC(=O)CN1CCCNc2c1c(=O)c2=O	167 to 168
c1ccc(COc2ccc(CCCCn3ccnc3)cc2)cc1	97 to 98
Cc1ncc(Cn2c(NC3CCNCC3)nc3ccccc32)o1	227
Oc1nsc(SCc2ccc(Cl)cc2Cl)n1	134
CS(=O)(=O)c1ccc(-c2cnn(-c3ccc(F)cc3)c(=O)c2N2CCCC2)cc1	192 to 195
COC(=O)c1cc2ccc(Br)cc2s1	108 to 110
Cc1ccc2c(c1)SC1(CCOC1=O)C2=O (stereo not given)	122 to 124
CCCCCCCCCCCCCCCCCC(=O)Oc1cc(C)c(O)c(C(C)(C)C)c1	64 to 65.5

Other lines, results leading:

melting point [°C]	Compound
> 250	Cn1cc(-c2ccnnc2)ccc1=O
95 to 98	O=C(O)C(c1ccccc1)n1cnc2[nH]ncc2c1=S (stereo not given)
89 to 90	CC(C)(C)c1ccccc1N1CCN(C(=O)CCC(=O)NS(C)(=O)=O)CC1
269 to 271	CCN(CC)c1ccc2nc3c4ccc(Br)cc4c(=Nc4ccncc4)cc-3oc2c1
80	O[C@@H]([C@H](O)[C@@H](COc1ccccc1)OCc1ccccc1)[C@@H](COc1ccccc1)OCc1ccccc1
73	COc1ccc(-c2ccc(C)cn2)c(F)c1F
207 to 211	Cc1cc(C2=NN(C3=NNC(=O)CS3)[C@H](C)Cc3cc4c(cc32)OCO4)ccc1[N+](=O)[O-]
175 to 177	O=C1C=CC(O)(c2cc3ccccc3n2S(=O)(=O)c2ccccc2)c2ccccc21 (stereo not given)
209 to 211	COc1ccc(C(=O)Nc2cccc(-c3cccc4c3/C(=C/c3ccc[nH]3)C(=O)N4)c2)cc1
166 to 169	Cc1sc2cc(CCO)ccc2c1C(=O)O
240 to 241	CC(=O)OCCOCn1cnc2c(=O)[nH]c(N)nc21
212 to 213	CC(=O)N1CCN(NC(=O)c2cccs2)CC1
102	COS(=O)(=O)Cc1cccc(-c2nc(=O)c3ccccc3s2)n1
152 to 161	COC(=O)c1ccccc1S(=O)(=O)NC(=O)Nc1nc(C)c(C)c(C)n1
173 to 174	CC1(C)CCOc2cc(C(=O)O)ccc21
119 to 121	CCN1CC(NC(=O)c2ccc(N)cc2)CN1CC
208 to 210	CS(=O)(=O)c1ccc(-c2cnn(-c3cccc(Br)c3)c(=O)c2Oc2ccc(F)cc2)cc1
86 to 88	CC(C)C[C@H](OC(=O)N1CCCCCC1)C(=O)O
150 to 152	Cc1ccc(S(=O)(=O)Nc2ccc(C#N)cc2[N+](=O)[O-])cc1
165	CNS(=O)(=O)c1ccc(NC=C2C(=O)Nc3ccc4ncsc4c32)cc1CCOCCO
85 to 86.5	CCOC(=O)C(CC(=O)c1ccc(Oc2ccc(C)cc2)cc1)SC(C)=O (stereo not given)
70 to 71	O=[N+]([O-])c1ccc2oc(CCC(F)(F)F)cc2c1
127	COCC1CN(C(=O)c2cc(OC)c(OC)c(OC)c2)CCN1C(=O)OC(C)(C)C (stereo not given)
169 to 170	Cc1cc2c(cc1Oc1ccc(C(=O)NNc3ccc4c(C)nn(C)c4n3)o1)C(C)(C)CC(C)C2(C)C (stereo not given)
215	Cn1c(C(F)(F)F)cc(=O)n(-c2ccc3snc(CS(=O)(=O)CC(=O)O)c3c2)c1=O
190 to 193	CN(C)C(=O)Cc1c(C(=O)c2ccccc2)[nH]c2cc(Cl)ccc12
73 to 76	Cc1coc(C)c1-c1nc2cc(Cl)cc(CCc3ccccn3)c2o1

melting point [°C]	Compound
205 to 207	COc1ccc(Cn2cnc3c(-c4ccco4)nc(C#N)nc32)cc1
294 to 296	O=C(Cc1ccncc1)NCc1cccc2c1C(=O)N(C1CCC(=O)NC1=O)C2=O (stereo not given)
202 to 206	COc1ccccc1C(=O)NS(=O)(=O)c1ccc(NC(=O)C2CCCC2)cc1
132 to 134	CC(=O)Oc1ccc(-c2ccc(CO)cc2S(=O)CC[Si](C)(C)C)cc1C (stereo not given)
84.4 to 85.7	CCCCCN(CCC12CC3CC(CC(C3)C1)C2)C(=O)NCCCc1ccccn1
127	NC(=O)CCCC(=O)NCCS
181 to 190	O=C1c2ccc(O)cc2OCC1Cc1cccnc1 (stereo not given)
156 to 158	COc1ccc(S(=O)(=O)N2c3ccccc3-c3ccccc3C2C(C)(C)C)cc1 (stereo not given)
124	Cc1cc(C#N)cc(C)c1OCCCC1=NNC(=O)CC1
224 to 227	Fc1cccc(Nc2nc(OCC3CCCCC3)c3[nH]cnc3n2)c1
125 to 128	COc1ccc(Br)c2c1C(=O)CC2
118 to 119	CCCOc1ccccc1-c1nc2nc(CC)ncc2c(=O)[nH]1
193	Cc1cccc(NC(=O)NCC(=O)N(CC(=O)N(C)c2ccccc2)c2ccccc2C)c1
165 to 167	COc1nc(C)nc(NC(=O)NS(=O)(=O)c2cccnc2OCC2CC2)n1
179 to 181	CCOC(=O)c1cnc2c(NC(=O)c3c(Cl)cccc3Cl)cccc2c1CSc1ccncc1
188 to 192	CN(C)c1ccc(C2(c3ccc(N(C)C)cc3N(C)C)OC(=O)c3ccc(N(C)C)cc32)c(N(C)C)c1
67 to 68	CCCCCCCCNC(=O)ON=C(Cc1ccccc1)C1=CC(=O)C(C)(C)O1
154	Cc1cccc(C(=O)OCC=Cc2ccccc2)c1O
130 to 132	CCCSc1ncc(C(=O)N[C@@H](Cc2c[nH]cn2)C(=O)O)n1Cc1ccccc1Cl
169 to 170	Cc1ccc([N+](=O)[O-])cc1S(=O)(=O)n1nnc2ccccc21
146 to 147	N#Cc1cc(C(=O)CC(O)(c2cc(Cl)cc(Cl)c2)C(F)(F)F)ccc1F (stereo not given)
199 to 200	CC1Cc2cccc3c4oc(=O)c(Sc5cccc(F)c5)c(O)c4c(=O)n1c23 (stereo not given)
88 to 89	O=C(O)c1c(C(F)(F)F)ccc(Cl)c1Cl
178 to 179	Cc1nc(N)c2nc(C)n(CCCNC(=O)C(C)C)c2c1C
89 to 90	CCOc1ccc(C(c2ccc(C(C)CC)cc2)C(CC)[N+](=O)[O-])cc1 (stereo not given)
204 to 206	Clc1cccc(Nc2ncnc3[nH]nc(NCc4cccnc4)c23)c1
